# Where two headings read alike, the source gives them in different places.
# Assays:
# [1] = system: Rats; assay: 4-vessel occlusion model of stroke, viability of CA1 neurons in the hippocampus; format: in vivo; conditions: ip doses of 20mg/kg twice daily for one week, first injection 30 minutes after reflow, 30 minutes 4-vessel occlusion, brains at 8 days
# [2] = system: Dogs; assay: Global ischemia (clamping the ascending aorta), protection of CA1 neurons; conditions: iv, 8 minutes global ischemia, treatment from 30 minutes after reflow, CA1 neurons on day 8
# Protocol: (§1) Dogs - Dogs are subjected to 8 minutes global ischemia (clamping the ascending aorta) and are treated iv with drug at 30 minutes after reflow. Treatment is given 6 hours later, b.i.d. for 2 more days and s.i.d. for 4 additional days. On day 8 the brains are removed and again drug protection of the vulnerable CA1 neurons is assessed. The Toxic doses are determined by administering the drug iv to conscious dogs in incremental doses and observing for side effects (we use preictal behaviour or convulsions as an endpoint).
# [3] = system: Dogs; conditions: iv
# Protocol: as §1
# [4] = Inverted screen test of Coughenour et al. (TD50); conditions: mouse, in vivo, mice, oral
# [5] = system: Mice; assay: Protection against NMDLA induced seizures (convulsions); format: in vivo; conditions: Mus musculus, 5 min, ip, evaluated for 5 minutes following iv injection of 150 mg/kg NMDLA
# Protocol: NMDA blocking activity may be measured by assessing a compound's ability to protect mice from convulsions induced by intravenous administration of 150 m/k of NMDA according to the procedures of Czuczwar et al., (Neurotransmitters, Seizures and Epilepsy III, edited by G. Nistico et al., Raven Press, New York 1986, pages 235-246). […] […] Animals were kept for 60 min after NMDA dosing and mortality was recorded.
# [6] = CD50: seizure following ip injection of the compound; conditions: mouse, in vivo, mice, no inverted screen TD50 performed, CD50 = dose when 50% of mice experience a seizure following ip injection
# [7] = system: Rats; assay: Neurotoxicity TD50, narrow plank walking test; conditions: narrow plank test one hour after administration
# Protocol: Rats - Rats are subjected to the 4-vessel occlusion model of stroke for 30 minutes followed by drug injection at 30 minutes after blood reflow to the brain. The drugs are administered ip twice daily for one week. At 8 days post stroke the brains are removed and protection is determined by determining viability of the vulnerable CA1 neurons in the hippocampus (neutrons associated with short term memory). […] Rats that fall are scored as failures.
# [8] = system: Mice; assay: Antihypoxia studies (time to mortality in a hypoxic environment); format: in vivo; conditions: Mus musculus, oral, dose that produces a 50% increase in the time to mortality in an hypoxic environment
# Protocol: Antihypoxia activity, that is, they extension of the lifetime of animals exposed to a hypoxic environment, may be conveniently measured in mice. Groups of mice are tested at various times after the intraperitoneal administration of graded doses of the test compound. The animals' survival time in a temperature controlled hypoxic environment (96% nitrogen and 4% oxygen) is recorded. A statistical comparison is made between coincident vehicle treated animals and the experimental group. […] Other modes of administration can also be used.
# [9] = system: Mice; assay: Protection against NMDLA induced mortality; format: in vivo; conditions: Mus musculus, 1 h, ip, evaluated over 60 minutes after NMDLA injection (150 mg/kg iv)
# Protocol: NMDA blocking activity may be measured by assessing a compound's ability to protect mice from convulsions induced by intravenous administration of 150 m/k of NMDA according to the procedures of Czuczwar et al., (Neurotransmitters, Seizures and Epilepsy III, edited by G. Nistico et al., Raven Press, New York 1986, pages 235-246). Groups of mice were pretreated by 30 min with the test compound by the oral or intraperitoneal routes and then given NMDA. […] Animals were kept for 60 min after NMDA dosing and mortality was recorded.
# [10] = system: Dogs; conditions: conscious dogs, iv incremental doses
# Protocol: as §1
SMILES,preventing loss of the CA1 neurons [1],dose active in protecting dogs against stroke [2] [mg/kg],dose active in protecting dogs against stroke [3] [mg/kg],TD50 [4] [mg/kg],ED50 [5] [mg/kg],TD50 [6] [mg/kg],ip doses for TD50s relative to neurotoxicity in the rat [7],ED50 [8] [mg/kg],ED50 [9] [mg/kg],lowest toxic dose for convulsions [10] [mg/kg],lowest toxic dose for preictal behaviour [10] [mg/kg]
"CC(Cc1ccccc1)(NC(=O)CN)c1ccccc1 (stereo not drawn) [Compound A, 2-amino-N-(1,2-diphenyl-1-methylethyl)acetamide]",effective,7.5,,,,,,,,,
"NCC(=O)NC(Cc1ccccc1)c1ccccc1 (stereo not drawn) [Compound B, 2-amino-N-(1,2-diphenylethyl)acetamide]",effective,,5,236,33,82.4,47,19.1,20.6,44,44

# From patent publication EP0427427A2, “Use of arylalkylamides in the treatment of neurodegenerative diseases” (FISONS CORPORATION, priority 1989, dated 1991)
